Some test systems named below: SW-620 colon; NCI-H226 lung; NCI/ADR-RES ovarian; U251 CNS; 786-0 renal; HL-60(TB) leukemia; DU-145 prostate; HS 578T breast; OVCAR-5 ovarian; SR leukemia.
Common to all, as to assay: NCI tumour cell line growth inhibition, 48 h

SMILES strings stand for the structures.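 Values below derive from 48-hour exposures of cells grown in 96-well plates, with endpoints linearly interpolated between the two concentrations bracketing the appropriate inhibition level. The concentration for 50% growth inhibition is given as GI50. TGI is the concentration that stops growth completely.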 Some results are limits rather than exact numbers.

`CCOC(=O)CCCn1c(SC)nc2[nH]cc(-c3ccccc3)c2c1=O`: the GI50 is 20.7 µM in the test with SW-620 colon; 14.1 µM in the test with NCI-H226 lung; 18.9 µM in the test on NCI/ADR-RES ovarian; 16.8 µM in the test with U251 CNS; 6.81 µM in the test with 786-0 renal; 1.05 µM with HL-60(TB) leukemia. Further, the GI50 was 17.1 µM with DU-145 prostate, 23.8 µM in the test on HS 578T breast and 37.5 µM in the test on OVCAR-5 ovarian. The TGI in the test on SW-620 colon was found to be 78.6 µM; in the test on NCI-H226 lung, 45.1 µM; in the test with NCI/ADR-RES ovarian, 53.1 µM; in the test on U251 CNS, 58.5 µM; in the test on 786-0 renal it was 44.8 µM; in the test on HL-60(TB) leukemia it was 15 µM. The TGI is more than 100 µM in the test on DU-145 prostate, 77.4 µM in the test with HS 578T breast and 97.1 µM in the test on OVCAR-5 ovarian.
As for `COc1cc2nc(-c3ccc(Cl)cc3)cc(OCCCN3CCCCC3)c2cc1OC`, the GI50 in the test on SW-620 colon was 3.09 µM; in the test with NCI-H226 lung, 1.12 µM; with SR leukemia it was 0.374 µM; with NCI/ADR-RES ovarian, 0.898 µM; with U251 CNS, 1.89 µM; in the test on 786-0 renal, 2.62 µM. Also, the GI50 in the test on DU-145 prostate is 2.54 µM; in the test with HS 578T breast, 2.11 µM; with OVCAR-5 ovarian it was 1.16 µM. The TGI with SW-620 colon is more than 100 µM; with NCI-H226 lung, 3.73 µM; in the test with SR leukemia, 2.85 µM; in the test with NCI/ADR-RES ovarian it was more than 100 µM; in the test on U251 CNS, more than 100 µM; with 786-0 renal, more than 100 µM. In addition, the results for the TGI in the test with DU-145 prostate, with HS 578T breast and in the test on OVCAR-5 ovarian were more than 100 µM, 7.18 µM and more than 100 µM, respectively.
Regarding `O=C(O)CCC(=O)c1ccc[nH]1`, the TGI with NCI-H226 lung, in the test with SR leukemia, in the test with NCI/ADR-RES ovarian, with U251 CNS, with 786-0 renal and with DU-145 prostate was more than 100 µM in each case. The TGI in the test on HS 578T breast and with OVCAR-5 ovarian was more than 100 µM in each case.
With `NC(=O)NC1C(c2ccccc2)=C1c1ccccc1`, the TGI stood at 37.5 µM with SW-620 colon; 25.1 µM in the test on NCI-H226 lung; 27 µM with NCI/ADR-RES ovarian; 32.7 µM with U251 CNS; 73.8 µM with 786-0 renal; 68.3 µM in the test with HL-60(TB) leukemia. For the same molecule, the TGI is more than 100 µM in the test on DU-145 prostate, more than 100 µM in the test with HS 578T breast and 64.4 µM in the test on OVCAR-5 ovarian.
Take `CC(C)CCN1c2nc(Nc3cc(F)c(O)c(F)c3)ncc2N(C)C(=O)C1C` (stereo unspecified): the GI50 in the test on SW-620 colon was 4.09 µM; with NCI-H226 lung, 17.4 µM; with NCI/ADR-RES ovarian it was 7.81 µM; in the test on U251 CNS it was 5.55 µM; in the test with 786-0 renal, 7.09 µM; with HL-60(TB) leukemia, 2.14 µM. In addition, the results for the GI50 in the test on DU-145 prostate, in the test on HS 578T breast and with OVCAR-5 ovarian were 6.41 µM, 3.22 µM and 19.1 µM, respectively. Besides, the TGI is 27.4 µM with SW-620 colon; 41.2 µM in the test on NCI-H226 lung; more than 100 µM with NCI/ADR-RES ovarian; 58.6 µM in the test with U251 CNS; 52.9 µM with 786-0 renal; 6.47 µM in the test on HL-60(TB) leukemia. Also, the TGI is 77.5 µM with DU-145 prostate, 32.1 µM in the test with HS 578T breast and more than 100 µM with OVCAR-5 ovarian.
`O=c1c2sc(=S)n(-c3ccc(F)cc3)c2ncn1Cc1ccc(F)cc1F`: the GI50 in the test with SW-620 colon was more than 100 µM; in the test on NCI-H226 lung it was more than 100 µM; in the test on NCI/ADR-RES ovarian, more than 100 µM; with U251 CNS it was more than 100 µM; with 786-0 renal, 80.5 µM; with HL-60(TB) leukemia, more than 100 µM. Besides, the GI50 was more than 100 µM with DU-145 prostate, 78.8 µM in the test on HS 578T breast and more than 100 µM with OVCAR-5 ovarian. Also, the TGI in the test with SW-620 colon, in the test on NCI-H226 lung, in the test on NCI/ADR-RES ovarian, with U251 CNS, in the test with 786-0 renal and in the test on HL-60(TB) leukemia was more than 100 µM throughout. In addition, the TGI with DU-145 prostate, with HS 578T breast and in the test with OVCAR-5 ovarian was more than 100 µM each time.
Turning to `CCCCCCCCCCCCOC1C(C(COC2OC(C3COC(C)(C)O3)C3OC(C)(C)OC23)NC(=O)Nc2ccc(C(=O)O)cc2)OC2OC(C)(C)OC21` (stereo unspecified), the GI50 with SW-620 colon is 3.26 µM; in the test on NCI-H226 lung, 3.45 µM; in the test with NCI/ADR-RES ovarian, 10.9 µM; in the test on U251 CNS, 3.3 µM; in the test on 786-0 renal it was 2.24 µM; in the test on HL-60(TB) leukemia, 2.12 µM. Moreover, the figures for the GI50 with DU-145 prostate, in the test on HS 578T breast and with OVCAR-5 ovarian were 3.07 µM, 3.46 µM and 2.67 µM, respectively. The TGI in the test with SW-620 colon was 11 µM; with NCI-H226 lung, 19.2 µM; in the test on NCI/ADR-RES ovarian it was 24.8 µM; in the test on U251 CNS, 11.1 µM; in the test on 786-0 renal, 5.49 µM; in the test with HL-60(TB) leukemia, 5.45 µM. Besides, the TGI with DU-145 prostate was found to be 9.79 µM; with HS 578T breast it was 13.2 µM; in the test with OVCAR-5 ovarian it was 6.85 µM.
`CCCCCCCCCCCCCC1=NC(C)(C)CN1C(C)C`: the GI50 is 1.58 µM in the test on SW-620 colon; 1.72 µM in the test with NCI-H226 lung; 1.67 µM in the test with NCI/ADR-RES ovarian; 1.64 µM in the test on U251 CNS; 1.72 µM in the test on 786-0 renal; 1.09 µM in the test with HL-60(TB) leukemia. For the same molecule, the GI50 is 1.7 µM in the test with DU-145 prostate, 1.79 µM in the test on HS 578T breast and 1.68 µM with OVCAR-5 ovarian. In addition, the TGI in the test on SW-620 colon is 2.92 µM; in the test with NCI-H226 lung it was 3.51 µM; in the test on NCI/ADR-RES ovarian it was 3.51 µM; in the test on U251 CNS, 3 µM; with 786-0 renal, 3.13 µM; with HL-60(TB) leukemia it was 2.72 µM. Further, the TGI was 3.06 µM in the test with DU-145 prostate, 3.86 µM in the test on HS 578T breast and 3.05 µM with OVCAR-5 ovarian.
As for `CC(C)c1ccc2c(c1)CC[C@@H]1[C@@](C)(C(=O)O)CCC[C@]21C`, the GI50 in the test with SW-620 colon was 10.2 µM; with NCI/ADR-RES ovarian, 17.8 µM; in the test with U251 CNS, 4.54 µM; in the test with 786-0 renal it was 4.58 µM; with HL-60(TB) leukemia, 3.4 µM; in the test on DU-145 prostate, 4.39 µM. For the same molecule, the GI50 was 3.08 µM in the test with HS 578T breast and 5.49 µM with OVCAR-5 ovarian. Moreover, the TGI is 22.8 µM in the test with SW-620 colon; 57 µM with NCI/ADR-RES ovarian; 18.3 µM with U251 CNS; 17 µM in the test on 786-0 renal; 20.9 µM in the test with HL-60(TB) leukemia; 19.6 µM with DU-145 prostate. Also, the TGI with HS 578T breast was found to be 9 µM; in the test on OVCAR-5 ovarian it was 25.6 µM.

Source of the values: PubChem BioAssay (NCI).
